Here are results for four molecules from patent US11225470B2, “Tetrazolinone compounds and its use as pest control agents” (SUMITOMO CHEMICAL COMPANY, LIMITED, priority 2016, dated 2022).

What all share (type): in vivo
The subject of experiment [1] is cotton aphid (Aphis gossypii). Nature of the experiment: cotton aphid test on cucumber seedling. The following applies: 144 h, 500 ppm spray on infested cucumber seedling, counted after 6 days, read-out: Controlling value (%).
The test system of experiment [2] is tomato late blight fungi (Phytophthora infestans). The following applies: 500 ppm foliar spray, inoculation after 1 day; tomato cv PATIO.
Experiment [3] concerns cabbage moth (Plutella xylostella). Nature of the experiment: cabbage moth mortality test on cabbage seedling. The following applies: 120 h, 500 ppm spray on cabbage seedling, five second instar larvae, counted after 5 days, read-out: Morality (%). From the text: Any of the present compounds 1-4, 1-5, 1-6, 3-9, 3-13, 3-17, 3-23, 3-25, 3-26, 3-29, 3-31, 4-1 or 5-3, each of which was made to a formulation according to the similar method to that of Formulation Example 6, was mixed with water so as to be 500 ppm. The mixtures were sprayed to foliar parts of the cabbage seedling (on the developmental stage of the second to third true leaf) that was planted in a container so as to adhere adequately on the leaves of the above-mentioned cabbage. After the spraying, the stem and leaf of the seedling was cut out and then was installed into the container that was covered with the filter paper. Five heads of cabbage moth (Plutella xylostella) at the second instar larval stages were released into the cup. After 5 days, the surviving insects were counted, and the mortality of insects was calculated by the following equation. Morality (%)={1−the number of the surviving insects/5}×100

In experiment [4] the test system is kidney bean sclerotinia rot fungi (Sclerotinia sclerotiorum). Nature of the experiment: kidney bean sclerotinia rot test. As to conditions: 200 ppm foliar spray; kidney bean cv NAGAUZURA SAITO; observed after four days. How it is done: Each of plastic pots was filled with soil and thereto Kidney bean (cv; NAGAUZURA SAITO) seeds were sown and the kidney beans were grown in a greenhouse for 8 days. Thereafter, any of the present compounds 1-1, 1-2, 1-3, 1-5, 1-10, 3-16, 3-22, 4-2, 4-3, 4-4, 4-8, or 6-2, each of which was made to a formulation according to the similar method to that of Formulation Example 6, was mixed with water so as to be a prescribed concentration (500 ppm). The adjusted solutions were sprayed to foliar parts so as to adhere adequately on the leaves of the above-mentioned kidney bean. After spraying the mixtures, the kidney beans were air-dried and a PDA medium containing hyphae of kidney bean sclerotinia rot fungi (Sclerotinia sclerotiorum) was placed on the leaves of the kidney bean. After the inoculation, all kidney beans were placed under a high humidity during only night and after four days, a lesion area was observed.
Each of plastic pots was filled with soil and thereto Kidney bean (cv; NAGAUZURA SAITO) seeds were sown and the kidney beans were grown in a greenhouse for 8 days. […] The adjusted solutions were sprayed to foliar parts so as to adhere adequately on the leaves of the above-mentioned kidney bean. […]

Experiment [5] has as its system soybean frogeye leaf spot disease fungi (Cercospora sojina). The experiment is described as follows: soybean frogeye leaf spot test, spraying after inoculation. The following applies: 200 ppm foliar spray 5 days after inoculation; soybean cv TACHINAGAHA
Experiment [6] relates to wheat leaf blotch fungi (Septoria tritici). Nature of the experiment: wheat leaf blotch test on 45-day wheat, plants placed outside for 4 days before inoculation. The following applies: 300 ppm, 200 L/ha, Formulation Example 4, wheat cv APOGEE grown 45 days. From the text: Each of plastic pots was filled with soil and wheat (cultivar: APOGEE) was sown, and the […] grown in a greenhouse for 45 days. Then, the comparative test compound cf3, the present compound E-15, or E-16, each of which was made to a formulation according to the similar method to that of Formulation Example 4, was mixed with water so as to be 300 ppm. The mixtures were sprayed to foliar parts of the wheat by the volume of 200 L/ha. After spraying the mixtures, the […], and placed outside for 4 days. Thereafter, an aqueous suspension of the spores of wheat leaf blotch fungi (Septoria tritici) was spraying-inoculated.

Experiment [7] deals with kidney bean sclerotinia rot fungi (Sclerotinia sclerotiorum). Nature of the experiment: kidney bean sclerotinia rot test, plants placed outside for 6 days before inoculation. As to conditions: 200 ppm foliar spray, observed after six days. From the text:
Each of plastic pots was filled with soil and kidney bean (cultivar: NAGAUZURA SAITO) was sown and grown in a greenhouse for 8 days. Then, the comparative test compound cf5, the present compound E-1, E-3, E-11, or E-16, each of which was made to a formulation according to the similar method to that of Formulation Example 6, was mixed with water so as to be 200 ppm. The mixtures were sprayed to foliar parts so as to adhere adequately on the leaves of the above-mentioned kidney bean. After spraying the mixtures, the kidney beans were air-dried, and placed outside for 6 days. Thereafter, a PDA medium containing hyphae of kidney bean sclerotinia rot fungi (Sclerotinia sclerotiorum) was placed on the leaves of the kidney bean. After the inoculation, all kidney beans were placed indoors under a high humidity during only night and after six days, a lesion area was observed.

For experiment [8], the system named is soybean frogeye leaf spot disease fungi (Cercospora sojina). The experiment is described as follows: soybean frogeye leaf spot test, spraying before inoculation. As to conditions: 3.1 ppm foliar spray, inoculation after 2 days; soybean cv Tachinagaha.

`CCC(=NN=C1CCc2c(OC)cccc21)OCc1c(C)cccc1-n1nnn(C)c1=O` [E-6]: the pest or weed control at 500 ppm in experiment [1] was no less than 60%; in experiment [3], no less than 80%. The “lesion area compared to the lesion area in an untreated tomato” value in experiment [2] is recorded as no more than 30%.
For the molecule `CCC(=NN=C(C)c1ccc2ccccc2c1)OCc1c(C)cccc1-n1nnn(C)c1=O` [cf1], in experiment [4], the “lesion area compared to the lesion area in an untreated kidney bean” value is on record as no less than 50%. The “lesion area compared to the lesion area in an untreated soybean” value in experiment [5] is no less than 50%.
Turning to `CCC(=NN=C(C)c1ccc(F)cc1)OCc1c(C)cccc1-n1nnn(C)c1=O` [cf3], in experiment [6], the “lesion area compared to the lesion area in an untreated wheat” value is listed as no less than 80%.
For `CCC(=NN=C(C)c1ccccc1)OCc1c(C)cccc1-n1nnn(C)c1=O` [cf5], the “lesion area compared to the lesion area in an untreated kidney bean” value in experiment [7] was no less than 70%. For the same molecule, the “area of lesion compared to that on an untreated bean” value in experiment [8] was “more than 70%”.
